# Results: patent publication EP3383875B1, “3-PYRIMIDINYL PYRROLO [2,3-B] PYRIDINE AS ANTICANCER AGENTS AND THE PROCESS FOR THE PREPARATION THEREOF” (Council Of Scientific & Industrial Research, priority 2015, dated 2017)
# Like-named read-outs stand apart in the source and are kept apart here.
# Assays:
# CDK-9/Cyclin T1 = CDK-9/Cyclin T1 (Homo sapiens, UniProt P50750); test: CDK inhibition assay, CDK-9/Cyclin T1 against substrate peptide, 33P-ATP; type: biochemical; details: at 500 nM
# Experimental: (50-1000 cpm/pmole) and incubated for 30 min at room temperature. Assays were stopped by addition of 5 µl of 0.5 M (3%) orthophosphoric acid and then harvested onto P81 Unifilter plates with a wash buffer of 50 mM orthophosphoric acid.
# HCT-116 = test: MTT assay on cancer cell line HCT-116; type: cell-based, human; details: Homo sapiens
# Experimental: (§1) Cell culture, growth conditions and treatments. […] Different molecules were dissolved in DMSO and were delivered to cell cultures in complete medium.
# SHSY-5Y = test: MTT assay on cancer cell line SHSY-5Y; type: cell-based, human; details: Homo sapiens, SH-SY5Y
# Experimental: as §1
# PC-3 = test: MTT assay on cancer cell line PC-3; type: cell-based, human; details: Homo sapiens
# Experimental: as §1
# MDA-MB435 = test: MTT assay on cancer cell line MDA-MB435; type: cell-based, Human; details: Homo sapiens, MDA-MB-435
# Experimental: as §1
# CDK-2/cyclin A = CDK-2/cyclin A (Homo sapiens, UniProt P24941); test: CDK inhibition assay, CDK-2/cyclin A against Histone HI, 33P-ATP; type: biochemical; details: at 500 nM
# In short: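 CDK-2/cyclin A (5-20 mU) phosphorylating Histone HI (1 mg/ml) in 50 mM Hepes pH 7.5, 100 mM NaCl, 10 mM Mg acetate, 0.02 mM [33P-γ-ATP], 30 min at room temperature. Stopped with orthophosphoric acid, captured on P81 filters for radiometric readout.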
# MCF-7 = test: MTT assay on cancer cell line MCF-7; type: cell-based, Human; details: Homo sapiens
# Experimental: as §1
# [1] = Table-7, read-out: In vitro CDK9 % of inhibition
# [2] = read-out: inhibition against CDK9
# [3] = at 10µM, Table 8, read-out: In vitro cell inhibition, % of inhibition, HCT-116
# [4] = SHSY-5Y, Table 8, read-out: In vitro cell inhibition, % of inhibition, SHSY-5Y
# [5] = read-out: inhibition against SHSY-5Y cell lines
# [6] = Table 8, read-out: In vitro cell inhibition, % of inhibition, PC-3
# [7] = MDA-MB435, at 10µM, Table 8, read-out: In vitro cell inhibition, % of inhibition, MDA-MB435
# [8] = Table-7, read-out: In vitro CDK2 % of inhibition
# [9] = read-out: inhibition against CDK2
# [10] = MCF7, MCF-7, Table 8, read-out: In vitro cell inhibition, % of inhibition, MCF-7
# [11] = MCF7, read-out: inhibition against MCF-7 cell lines
# [12] = Table-6, read-out: In vitro CDK9 % of inhibition
# [13] = Table-6, read-out: In vitro CDK2 % of inhibition
# [14] = read-out: inhibition against PC-3 cell lines
# [15] = at 10 µM, read-out: inhibition against HCT-116 cell lines
# [16] = at 10 µM, read-out: inhibition against MDAMB-435 cell lines
# Sequence of CDK-9/Cyclin T1 (P50750 whole entry): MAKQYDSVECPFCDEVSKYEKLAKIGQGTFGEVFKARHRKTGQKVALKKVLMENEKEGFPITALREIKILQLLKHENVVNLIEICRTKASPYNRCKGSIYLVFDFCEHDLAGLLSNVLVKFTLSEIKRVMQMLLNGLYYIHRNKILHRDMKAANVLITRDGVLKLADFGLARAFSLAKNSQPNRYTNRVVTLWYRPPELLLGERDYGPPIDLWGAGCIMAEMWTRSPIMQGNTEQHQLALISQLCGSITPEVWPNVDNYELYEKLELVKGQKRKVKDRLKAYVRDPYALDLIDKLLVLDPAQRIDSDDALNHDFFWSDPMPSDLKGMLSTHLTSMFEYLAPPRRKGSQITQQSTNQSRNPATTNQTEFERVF
# Sequence of CDK-9/Cyclin T1 (O60563 whole entry partner): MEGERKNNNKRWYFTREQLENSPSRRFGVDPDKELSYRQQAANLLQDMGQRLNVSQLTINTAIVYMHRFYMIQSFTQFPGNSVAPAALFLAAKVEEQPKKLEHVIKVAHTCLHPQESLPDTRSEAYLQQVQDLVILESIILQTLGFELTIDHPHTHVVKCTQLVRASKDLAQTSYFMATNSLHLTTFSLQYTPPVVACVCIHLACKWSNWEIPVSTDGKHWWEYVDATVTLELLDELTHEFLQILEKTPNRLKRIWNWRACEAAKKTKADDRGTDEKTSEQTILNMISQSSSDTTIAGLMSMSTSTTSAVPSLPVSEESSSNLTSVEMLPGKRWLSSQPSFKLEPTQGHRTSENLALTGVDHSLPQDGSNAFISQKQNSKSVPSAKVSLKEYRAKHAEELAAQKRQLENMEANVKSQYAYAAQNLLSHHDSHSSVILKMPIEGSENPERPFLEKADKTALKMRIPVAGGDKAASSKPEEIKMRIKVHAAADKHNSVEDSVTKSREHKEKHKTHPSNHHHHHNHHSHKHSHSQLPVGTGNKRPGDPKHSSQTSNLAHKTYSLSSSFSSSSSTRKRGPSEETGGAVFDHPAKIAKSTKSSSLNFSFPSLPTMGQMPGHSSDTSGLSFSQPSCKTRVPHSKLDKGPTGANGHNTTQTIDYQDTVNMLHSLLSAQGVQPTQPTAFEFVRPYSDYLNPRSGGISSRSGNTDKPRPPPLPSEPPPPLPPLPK
inhibition at 0.5 µM (CDK-9/Cyclin T1; [1]),inhibition at 0.5 µM (CDK-9/Cyclin T1; [2]),inhibition at 0.5 µM (CDK-2/cyclin A; [8]),inhibition at 0.5 µM (CDK-2/cyclin A; [9]),inhibition at 0.5 µM (CDK-9/Cyclin T1; [12]),inhibition at 0.5 µM (CDK-2/cyclin A; [13]),SMILES,inhibition at 10 µM (HCT-116; [3]),inhibition at 10 µM (SHSY-5Y; [4]),inhibition at 10 µM (SHSY-5Y; [5]),inhibition at 10 µM (PC-3; [6]),inhibition at 10 µM (MDA-MB435; [7]),inhibition at 10 µM (MCF-7; [10]),inhibition at 10 µM (MCF-7; [11]),inhibition at 10 µM (PC-3; [14]),further results
> 70%,> 70%,> 70%,> 70%,–,–,"c1ccc(CCNc2nccc(-c3c[nH]c4ncc(-c5cccnc5)cc34)n2)cc1 [1B15, N-phenethyl-4-(5-(pyridin-3-yl)-1H-pyrrolo[2,3-b]pyridin-3-yl)pyrimidin-2-amine]",> 50%,> 70%,> 70%,< 50%,< 50%,> 50%,> 50%,–,–
> 50%,> 50%,> 50%,> 50%,–,–,"COc1ccc(-c2cnc3[nH]cc(-c4ccnc(NCCc5ccccc5)n4)c3c2)cc1 [1B11, 4-(5-(4-methoxyphenyl)-1H-pyrrolo[2,3-b]pyridin-3-yl)-N-phenethylpyrimidin-2-amine]",> 50%,> 50%,–,< 50%,> 50%,> 50%,> 50%,–,–
> 70%,> 70%,> 70%,> 70%,–,–,"COc1ccc(-c2cnc3[nH]cc(-c4ccnc(NC5CCCCCC5)n4)c3c2)cc1 [1A51, N-cycloheptyl-4-(5-(4-methoxyphenyl)-1H-pyrrolo[2,3-b]pyridin-3-yl)pyrimidin-2-amine]",> 50%,> 50%,–,< 50%,< 50%,> 70%,> 70%,–,–
–,–,–,–,> 50%,> 50%,"Fc1ccc(-c2cnc3[nH]cc(-c4ccnc(NC5CCCC5)n4)c3c2)cc1 [1A22, N-cyclopentyl-4-(5-(4-fluorophenyl)-1H-pyrrolo[2,3-b]pyridin-3-yl)pyrimidin-2-amine]",> 50%,> 70%,> 70%,> 50%,< 50%,> 50%,> 50%,–,–
> 70%,> 70%,> 70%,> 70%,–,–,"Nc1nccc(-c2c[nH]c3ncc(-c4cccc5ccccc45)cc23)n1 [1C14, 4-(5-(naphthalen-1-yl)-1H-pyrrolo[2,3-b]pyridin-3-yl)pyrimidin-2-amine]",–,–,–,–,–,–,> 50%,–,"inhibition at 10 µM (HCT-116; at 10µM, Table 9 (for reference), read-out: In vitro cell inhibition, % of inhibition, HCT-116): > 70%; inhibition at 10 µM (SHSY-5Y; SHSY-5Y, Table 9 (for reference), read-out: In vitro cell inhibition, % of inhibition, SHSY-5Y): > 50%; inhibition at 10 µM (PC-3; Table 9 (for reference), read-out: In vitro cell inhibition, % of inhibition, PC-3): > 70%; inhibition at 10 µM (MDA-MB435; MDA-MB435, at 10µM, Table 9 (for reference), read-out: In vitro cell inhibition, % of inhibition, MDA-MB435): > 50%; inhibition at 10 µM (MCF-7; MCF7, MCF-7, Table 9 (for reference), read-out: In vitro cell inhibition, % of inhibition, MCF-7): > 50%"
–,> 50%,–,> 50%,> 50%,> 50%,"COc1ccc(-c2cnc3[nH]cc(-c4ccnc(NC5CCCC5)n4)c3c2)cc1 [1A31, N-cyclopentyl-4-(5-(4-methoxyphenyl)-1H-pyrrolo-[2,3-b]pyridin-3-yl)pyrimidin-2-amine]",> 50%,> 70%,> 70%,> 50%,> 50%,< 50%,< 50%,> 50%,–
–,> 70%,–,> 70%,> 70%,> 70%,"Fc1ccc(-c2cnc3[nH]cc(-c4ccnc(NC5CC5)n4)c3c2)cc1 [1A2, N-cyclopropyl-4-(5-(4-fluorophenyl)-1H-pyrrolo[2,3-b]pyridin-3-yl)pyrimidin-2-amine]",> 70%,> 70%,> 70%,> 50%,> 70%,> 70%,> 70%,> 50%,inhibition at 10 µM (HCT-116; [15]): > 70%; inhibition at 10 µM (MDA-MB435; [16]): > 70%
–,–,–,–,> 50%,> 70%,"FC(F)(F)Oc1ccc(-c2cnc3[nH]cc(-c4ccnc(NC5CCCC5)n4)c3c2)cc1 [1A23, N-cyclopentyl-4-(5-(4-(trifluoromethoxy)phenyl)-1H-pyrrolo[2,3-b]pyridin-3-yl)pyrimidin-2-amine]",> 50%,> 70%,> 70%,> 50%,< 50%,> 50%,> 50%,–,–
–,> 70%,–,> 70%,> 70%,> 70%,"COc1ccc(-c2cnc3[nH]cc(-c4ccnc(NC5CC5)n4)c3c2)cc1 [1A11, N-cyclopropyl-4-(5-(4-methoxyphenyl)-1H-pyrrolo[2,3-b]pyridin-3-yl)pyrimidin-2-amine]",> 70%,> 70%,> 70%,> 50%,> 70%,> 70%,> 70%,> 50%,inhibition at 10 µM (HCT-116; [15]): > 70%; inhibition at 10 µM (MDA-MB435; [16]): > 70%
> 50%,> 50%,> 50%,> 50%,–,–,"Fc1ccc(-c2cnc3[nH]cc(-c4ccnc(NCCc5ccccc5)n4)c3c2)cc1 [1B2, 4-(5-(4-fluorophenyl)-1H-pyrrolo[2,3-b]pyridin-3-yl)-N-phenethylpyrimidin-2-amine]",> 50%,> 70%,> 70%,< 50%,> 50%,> 50%,–,–,–
–,> 50%,–,> 50%,> 50%,> 50%,"Fc1ccc(-c2cnc3[nH]cc(-c4ccnc(NC5CCCCCC5)n4)c3c2)cc1 [1A42, N-cycloheptyl-4-(5-(4-fluorophenyl)-1H-pyrrolo[2,3-b]pyridin-3-yl)pyrimidin-2-amine]",> 50%,> 70%,> 70%,> 50%,> 70%,< 50%,< 50%,> 50%,–
–,–,–,–,< 50%,< 50%,"FC(F)(F)c1ccc(-c2cnc3[nH]cc(-c4ccnc(NC5CCCCCC5)n4)c3c2)cc1 [1A41, N-cycloheptyl-4-(5-(4-(trifluoromethyl)phenyl)-1H-pyrrolo[2,3-b]pyridin-3-yl)pyrimidin-2-amine]",> 50%,> 70%,> 70%,< 50%,< 50%,> 50%,> 50%,–,–
> 70%,> 70%,> 70%,> 70%,–,–,"Clc1ccc(-c2cnc3[nH]cc(-c4ccnc(NCCc5ccccc5)n4)c3c2)cc1 [1B12, 4-(5-(4-chlorophenyl)-1H-pyrrolo[2,3-b]pyridin-3-yl)-N-phenethylpyrimidin-2-amine]",> 50%,> 70%,> 70%,> 70%,< 50%,> 50%,–,–,–
